Results taken from patent US20210115104A1, “AMYLIN ANALOGUES” (Zealand Pharma A/S, priority 2015, published 2021).
*1 amine or outer side, *2 acyl side, *3 side chain or, on linkers, in order; H or OH if unused. Where a SMILES comes first, the peptide text is derived from it. Bridges are numbered along the chain shown (N, C = ends). [ ]: non-standard residue; d: D form. The star is where a group is joined. C20 diacid = O=C(O)CCCCCCCCCCCCCCCCCCC(=O)*; γGlu = O=C(O)[C@H](CCC(=O)[*:2])N[*:1]; NMeI = CC[C@H](C)[C@H](NC)C(=O)O; Sar = CNCC(=O)O

Experiments:
[1] = Assessment of physical stability (Thioflavin T fibrillation); type: physicochemical; set-up: key: FND = fibrillation not detected; FD = fibrillation detected; conditions: 1 mg/ml, 40° C., ThT; for Fibrillation pH 4.0 (Ac): 50 mM acetate buffer pH 4.0, 96 hours; for Fibrillation pH 7.0 (His): 50 mM histidine buffer pH 7.0, 96 hours; for Fibrillation pH 7.0 (Phos.): 50 mM phosphate buffer pH 7.0, 96 hours
Procedure: Solutions containing (i) 1 mg/ml of test peptide, 40 μM ThT and 50 mM phosphate (Ph) buffer (pH 7.0), (ii) 1 mg/ml of test peptide, 40 μM ThT and 50 mM histidine (His) buffer (pH 7.0), and (iii) 1 mg/ml of test peptide, 40 μM ThT and 50 mM acetate (Ac) buffer (pH 4.0), were loaded in a 96-well black fluorescence plate (clear bottom) in triplicate. Data were collected at fixed intervals of 10 min, each preceded by 300 s of automixing (agitation), over a period of 96 hours at 40° C. Physical stability, expressed as lag-time of fibril formation (in hours), was defined as the intersection between two linear regressions representing the initial stable phase and the growth phase.

[2] = Assessment of chemical stability (RP-HPLC normalized purity); type: physicochemical; conditions: for Normalized purity after 7 days, 40° C., pH 4: pH 4, 0.2 mg/ml; for Normalized purity after 7 days, 40° C., pH 4 / Normalized purity after 7 days, 40° C., pH 7.5 / Normalized purity after 7 days, 40° C., pH 9: Table 1; for Normalized purity after 7 days, 40° C., pH 7.5: pH 7.5, 0.2 mg/ml; for Normalized purity after 7 days, 40° C., pH 9: pH 9, 0.2 mg/ml
Procedure: Samples of each test peptide were dissolved in MilliQ™ water, and the pH of the solution was adjusted to pH 4, pH 6, pH 7.5 or pH 9, respectively, using either HCl or NaOH. The final peptide concentration was 0.2 mg/ml. Samples were placed in glass vials and incubated at 40° C. The samples were analyzed by RP-HPLC on a C8 column with gradient elution using an ammonium formate/water eluent system, or on a C18 column with gradient elution using a trifluoroacetic acid/water eluent system. The area-percentage (area-%) of the main peak after incubation time T=t (relative to time T=0) was determined by UV spectroscopy at 220 nm.
The purity was first determined as follows:
Purity(area-%)=(area of main peak/total area of all peaks)×100.
The purity was then normalized between time points by setting purity at time 0 (T=0) to 100 for each pH value for a given peptide, as follows:
Normalised area-% at time t (T=t)=[area-%(T=t)/area-%(T=0)]×100.
The normalized purity values in Table 1 were determined after 7 days of incubation.
The chemical stability assessment described in Example 6 was repeated for four pairs of compounds, each differing only by the presence or absence of an Asn-Asn (N—N) doublet at positions 21 and 22.

Row | SMILES | Fibrillation pH 4.0 (Ac) [1] | Fibrillation pH 7.0 (His) [1] | Fibrillation pH 7.0 (Phos.) [1] | Normalized purity after 7 days, 40° C., pH 4 [2] | Normalized purity after 7 days, 40° C., pH 7.5 [2] | Normalized purity after 7 days, 40° C., pH 9 [2] | Normalized purity pH 4 (Table 5) ([2]; pH 4, repeat of Example 6 for pairs with/without Asn-Asn at 21-22) | Normalized purity pH 6 (Table 5) ([2]; pH 6, repeat of Example 6 for pairs with/without Asn-Asn at 21-22) | Normalized purity pH 7.5 (Table 5) ([2]; pH 7.5, repeat of Example 6 for pairs with/without Asn-Asn at 21-22) | Normalized purity pH 9 (Table 5) ([2]; pH 9, repeat of Example 6 for pairs with/without Asn-Asn at 21-22)
1 | CC[C@H](C)[C@@H](C(=O)N[C@@H](CC(C)C)C(=O)N[C@@H](CO)C(=O)N[C@@H](CO)C(=O)N[C@H](C(=O)N[C@@H](CCC(=O)O)C(=O)N[C@H](C(=O)NCC(=O)N[C@@H](CO)C(=O)N[C@@H](CCC(=O)O)C(=O)N[C@H](C(=O)N1CCC[C@H]1C(N)=O)[C@@H](C)O)C(C)C)[C@@H](C)O)N(C)C(=O)[C@H](C)NC(=O)CN(C)C(=O)[C@H](Cc1ccccc1)NC(=O)[C@H](CO)NC(=O)[C@H](CO)NC(=O)[C@H](CCCNC(=N)N)NC(=O)[C@H](Cc1c[nH]cn1)NC(=O)[C@H](CC(C)C)NC(=O)[C@H](Cc1ccccc1)NC(=O)[C@H](Cc1c[nH]cn1)NC(=O)[C@H](C)NC(=O)[C@H](CC(C)C)NC(=O)[C@H](CCCNC(=N)N)NC(=O)[C@H](CCC(N)=O)NC(=O)[C@@H](NC(=O)[C@H](C)NC(=O)[C@@H]1CSSC[C@H](NC(=O)[C@H](CCCNC(=N)N)NC(=O)CC[C@H](NC(=O)CCCCCCCCCCCCCCCCCCC(=O)O)C(=O)O)C(=O)N[C@@H](CC(N)=O)C(=O)N[C@@H]([C@@H](C)O)C(=O)N[C@@H](C)C(=O)N[C@@H]([C@@H](C)O)C(=O)N1)[C@@H](C)O [Compound 2, [19CD]-isoGlu-R-C( )-NTAT-C( )-ATQRLAHFLHRSSF-Gly(Me)-A-Ile(Me)-LSSTEVGSETP-NH2] ({C20 diacid-γGlu}-RCNTATCATQRLAHFLHRSSF[Sar]A[NMeI]LSSTEVGSETP-NH2; disulfide 2-7) | FND | FD | FND | A (A = >90%) | A (A = >90%) | B (B = 70-90%) |  |  |  | 
2 | CC[C@H](C)[C@@H](C(=O)N[C@@H](CC(C)C)C(=O)N[C@@H](CO)C(=O)N[C@@H](CO)C(=O)N[C@H](C(=O)N[C@@H](CCC(=O)O)C(=O)N[C@H](C(=O)NCC(=O)N[C@@H](CO)C(=O)N[C@@H](CCC(=O)O)C(=O)N[C@H](C(=O)N1CCC[C@H]1C(N)=O)[C@@H](C)O)C(C)C)[C@@H](C)O)N(C)C(=O)[C@H](C)NC(=O)CN(C)C(=O)[C@H](Cc1ccccc1)NC(=O)[C@H](CO)NC(=O)[C@H](CO)NC(=O)[C@H](CCCNC(=N)N)NC(=O)[C@H](Cc1c[nH]cn1)NC(=O)[C@H](CC(C)C)NC(=O)[C@H](Cc1ccccc1)NC(=O)[C@H](CC(N)=O)NC(=O)[C@H](C)NC(=O)[C@H](CC(C)C)NC(=O)[C@H](CCCNC(=N)N)NC(=O)[C@H](CCC(N)=O)NC(=O)[C@@H](NC(=O)[C@H](C)NC(=O)[C@@H]1CSSC[C@H](NC(=O)[C@H](CCCNC(=N)N)NC(=O)CC[C@H](NC(=O)CCCCCCCCCCCCCCCCCCC(=O)O)C(=O)O)C(=O)N[C@@H](CC(N)=O)C(=O)N[C@@H]([C@@H](C)O)C(=O)N[C@@H](C)C(=O)N[C@@H]([C@@H](C)O)C(=O)N1)[C@@H](C)O [Compound 3, [19CD]-isoGlu-R-C( )-NTAT-C( )-ATQRLANFLHRSSF-Gly(Me)-A-Ile(Me)-LSSTEVGSETP-NH2] ({C20 diacid-γGlu}-RCNTATCATQRLANFLHRSSF[Sar]A[NMeI]LSSTEVGSETP-NH2; disulfide 2-7) | FD | FD | FD | A (A = >90%) | B (B = 70-90%) | B (B = 70-90%) |  |  |  | 
3 | CC[C@H](C)[C@H](NC(=O)[C@@H]1CCCN1C(=O)CNC(=O)[C@H](Cc1ccccc1)NC(=O)[C@H](CO)NC(=O)[C@H](CO)NC(=O)[C@H](Cc1c[nH]cn1)NC(=O)[C@H](Cc1c[nH]cn1)NC(=O)[C@H](CC(C)C)NC(=O)[C@H](Cc1ccccc1)NC(=O)[C@H](CCC(=O)O)NC(=O)[C@H](C)NC(=O)[C@H](CC(C)C)NC(=O)[C@H](CCCNC(=N)N)NC(=O)[C@H](CCC(N)=O)NC(=O)[C@@H](NC(=O)[C@H](C)NC(=O)[C@@H]1CSSC[C@H](NC(=O)[C@H](CCCNC(=N)N)NC(=O)CC[C@H](NC(=O)CCCCCCCCCCCCCCCCCCC(=O)O)C(=O)O)C(=O)N[C@@H](CC(N)=O)C(=O)N[C@@H]([C@@H](C)O)C(=O)N[C@@H](C)C(=O)N[C@@H]([C@@H](C)O)C(=O)N1)[C@@H](C)O)C(=O)N[C@@H](CC(C)C)C(=O)N1CCC[C@H]1C(=O)N1CCC[C@H]1C(=O)N[C@H](C(=O)N[C@@H](CC(N)=O)C(=O)N[C@H](C(=O)NCC(=O)N[C@@H](CO)C(=O)N[C@@H](CC(N)=O)C(=O)N[C@H](C(=O)N1CCC[C@H]1C(N)=O)[C@@H](C)O)C(C)C)[C@@H](C)O [Compound 97, reference compound] ({C20 diacid-γGlu}-RCNTATCATQRLAEFLHHSSFGPILPPTNVGSNTP-NH2; disulfide 2-7) |  |  |  |  |  |  | A (A = >90%) | A (A = >90%) | A (A = >90%) | A (A = >90%)
4 | CC[C@H](C)[C@H](NC(=O)[C@@H]1CCCN1C(=O)CNC(=O)[C@H](Cc1ccccc1)NC(=O)[C@H](CC(N)=O)NC(=O)[C@H](CC(N)=O)NC(=O)[C@H](CO)NC(=O)[C@H](CO)NC(=O)[C@H](Cc1c[nH]cn1)NC(=O)[C@@H](NC(=O)[C@H](CC(C)C)NC(=O)[C@H](Cc1ccccc1)NC(=O)[C@H](CC(N)=O)NC(=O)[C@H](C)NC(=O)[C@H](CC(C)C)NC(=O)[C@H](CCCNC(=N)N)NC(=O)[C@H](CCC(N)=O)NC(=O)[C@@H](NC(=O)[C@H](C)NC(=O)[C@@H]1CSSC[C@H](NC(=O)[C@@H](N)CCCCN)C(=O)N[C@@H](CC(N)=O)C(=O)N[C@@H]([C@@H](C)O)C(=O)N[C@@H](C)C(=O)N[C@@H]([C@@H](C)O)C(=O)N1)[C@@H](C)O)C(C)C)C(=O)N[C@@H](CC(C)C)C(=O)N1CCC[C@H]1C(=O)N1CCC[C@H]1C(=O)N[C@H](C(=O)N[C@@H](CC(N)=O)C(=O)N[C@H](C(=O)NCC(=O)N[C@@H](CO)C(=O)N[C@@H](CC(N)=O)C(=O)N[C@H](C(=O)N[C@@H](Cc1ccc(O)cc1)C(N)=O)[C@@H](C)O)C(C)C)[C@@H](C)O [Pramlintide, reference compound] | FD |  | FD |  |  |  |  |  |  | 
